# Reference: ChEMBL document CHEMBL1156839, “From anti-fouling to biofilm inhibition: new cytotoxic secondary metabolites from two Indonesian Agelas sponges” (Bioorg Med Chem, 2010)
# Where a name gives a salt, the structure may show the parent alone. Calls of active or inactive are those of the source. The calls are words filed in the database; no cut-off is given here.
# Tests used:
# L5178Y [1] = assay: Cytotoxicity against mouse L5178Y cells after 72 hrs by MTT assay; assay type: functional, cell-based
# L5178Y [2] = assay: Growth inhibition of mouse L5178Y cells at […] after 72 hrs by MTT assay relative to untreated control; assay type: functional; set-up: dose or concentration left out as unconfirmed; settings: values are per cent of control
# [3] = tested on: Staphylococcus epidermidis; assay: Antibacterial activity against Staphylococcus epidermidis assessed as inhibition of biofilm formation after 18 hrs by adherent assay; assay type: functional, organism-based
# [4] = tested on: Staphylococcus epidermidis; assay: Antibacterial activity against Staphylococcus epidermidis; assay type: functional
# [5] = tested on: Staphylococcus epidermidis; assay: Growth inhibition of Staphylococcus epidermidis; assay type: functional, organism-based
# Amphibalanus improvisus [6] = assay: Antifouling activity against Balanus improvisus […] larvae assessed as inhibition of cyprid larval settlement at 0.1 uM to 100 uM; assay type: functional, organism-based
# Amphibalanus improvisus [7] = assay: Toxicity against Balanus improvisus […] larvae assessed as cyprid larval death at 0.1 uM to 100 uM; assay type: ADME, organism-based; settings: in vivo
# [8] = Staphylococcus epidermidis, read-out: MIC
Structure (SMILES),"MIC [4, 8] [µM]",MIC [4] [µM],IC50 (L5178Y [1]) [µM],"growth, % of control (L5178Y [2]) [%]",inhibition [3],growth inhibition (GI) [5],inhibition (Amphibalanus improvisus [6]),Activity (Amphibalanus improvisus [7])
O=C1NCC(O)n2cc(Br)cc21 (configuration not stated),> 87,–,> 43.2,78.5,inactive,inactive,–,–
Cn1c(C(=O)O)cc(Br)c1Br,> 71,–,–,87.8,inactive,inactive,–,–
COC(=O)c1cc(Br)c(Br)n1C,> 67,–,–,83.4,inactive,inactive,–,–
NC1=N[C@@]23CCCN2C(=O)c2cc(Br)c(Br)n2[C@H]3N1,–,–,–,–,inactive,inactive,–,–
CN(C)CCc1ccc(OCCCNC(=O)c2cc(Br)c[nH]2)c(Br)c1 [AGELANESIN A],> 42,–,9.55,-0.5,inactive,inactive,–,–
CN(C)CCc1ccc(OCCCNC(=O)c2cc(Br)c[nH]2)c(I)c1 [AGELANESIN B],> 38,–,9.25,2.3,inactive,inactive,–,–
CN(C)CCc1ccc(OCCCNC(=O)c2cc(Br)c(Br)[nH]2)c(Br)c1 [AGELANESIN C],> 36,–,16.8,0.8,inactive,inactive,–,–
CN(C)CCc1ccc(OCCCNC(=O)c2cc(Br)c(Br)[nH]2)c(I)c1 [AGELANESIN D],> 33,–,13.1,-2.3,inactive,inactive,–,–
Cn1c(C(=O)N2CCC(O)=C3N=C(N)N=C32)cc(Br)c1Br [AGELANIN A],> 48,–,–,98.9,inactive,inactive,–,–
CC(=O)C(O)(CCCNC(=O)c1cc(Br)c(Br)n1C)CC(=O)O (configuration not stated) [AGELANIN B],> 44,–,–,92.8,inactive,inactive,–,–
C=C1CC[C@@H]2C(C)(C)CCC[C@@]2(C)[C@@H]1CC/C(C)=C/Cn1c[n+](C)c2ncnc(N)c21.[Cl-] [AGELASINE D],< 0.0877,–,4.03,1.9,inactive,inactive,Dose-dependent effect,Toxic
Cn1c(C(=O)NCCCC2(NCCS(=O)(=O)O)NC(=N)NC2=O)cc(Br)c1Br (configuration not stated) [MAURITAMIDE B],> 37,–,–,92.5,inactive,inactive,–,–
Cn1c(C(=O)NCCS(=O)(=O)O)cc(Br)c1Br [MAURITAMIDE D],> 52,–,–,118,inactive,inactive,–,–

# Continued, in another order:
"MIC [4, 8] [µM]",MIC [4] [µM],Structure (SMILES),IC50 (L5178Y [1]) [µM],"growth, % of control (L5178Y [2]) [%]",inhibition [3],growth inhibition (GI) [5],inhibition (Amphibalanus improvisus [6]),Activity (Amphibalanus improvisus [7])
> 45,–,C=C1CC[C@@H]2C(C)(C)CCC[C@@]2(C)[C@@H]1CC/C(C)=C/C[n+]1cn(C)c2nc[nH]/c(=N\O)c21.[Cl-],12.5,4.2,Active,inactive,Dose-dependent effect,Toxic
> 54,–,Cn1c(C(=O)NCCCC(=O)O)cc(Br)c1Br,–,108,inactive,inactive,–,–
5.9,–,CC1=CCC[C@@H](C)[C@]1(C)CC/C(C)=C/CC/C(C)=C/CS(=O)(=O)CCNC(=N)N [AGELASIDINE C],–,37.4,inactive,inactive,–,–
> 45,–,NC1=N[C@@]23CCCN2C(=O)c2cc(Br)c(Br)n2[C@]3(O)N1 [DIBROMOHYDROXYPHAKELLIN HYDROCHLORIDE],–,113,inactive,inactive,–,–
> 47,–,NC1=N[C@@]23CCCN2C(=O)c2cc(Br)c(Br)n2[C@H]3N1 [DIBROMPHAKELLIN HYDROCHLORIDE],–,–,–,–,–,–
–,>51,NC1=N[C@@]23CCCN2C(=O)c2cc(Br)c(Br)n2[C@H]3N1 [DIBROMPHAKELLIN],–,–,–,–,–,–
> 35,–,CCN1C(=N)NC(=O)C1(CCCNC(=O)c1cc(Br)c(Br)n1C)NCCS(=O)(=O)O (configuration not stated) [MAURITAMIDE C],–,98.6,inactive,inactive,–,–
> 46,–,CN1C(=O)NC(CCCNC(=O)c2cc(Br)c(Br)n2C)C1=O (configuration not stated) [MIDPACAMIDE],–,46.7,inactive,inactive,–,–
